In ChEMBL document CHEMBL4402557, “Nidufexor (LMB763), a Novel FXR Modulator for the Treatment of Nonalcoholic Steatohepatitis” (J Med Chem, 2020):
pEC50: −log10 of the molar value. ≈ marks a conversion by molar mass, not a printed value. Calls of active or inactive are those of the source. The rule behind the calls is not given here.

Assays:
[1] = target: T1, Bile acid receptor (Homo sapiens, UniProt Q96RI1); assay: Agonist activity at GST-tagged human FXR-LBD (193 to 472 residues) using biotinylated SRC-1 peptide as substrate incubated for 1 hrs by HTRF assay
T1 sequence (Q96RI1 whole entry): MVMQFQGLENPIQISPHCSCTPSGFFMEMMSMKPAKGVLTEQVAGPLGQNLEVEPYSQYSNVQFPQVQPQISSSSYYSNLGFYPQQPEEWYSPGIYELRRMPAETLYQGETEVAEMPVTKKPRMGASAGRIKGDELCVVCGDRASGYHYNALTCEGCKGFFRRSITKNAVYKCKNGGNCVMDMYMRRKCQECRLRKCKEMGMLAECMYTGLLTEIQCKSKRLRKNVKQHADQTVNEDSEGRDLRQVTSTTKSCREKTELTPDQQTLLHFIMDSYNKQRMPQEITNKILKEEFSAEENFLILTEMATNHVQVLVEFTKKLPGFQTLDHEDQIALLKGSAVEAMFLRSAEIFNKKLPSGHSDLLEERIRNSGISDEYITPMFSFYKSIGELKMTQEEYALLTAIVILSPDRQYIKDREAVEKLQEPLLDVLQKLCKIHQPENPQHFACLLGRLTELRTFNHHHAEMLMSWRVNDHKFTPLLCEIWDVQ

[2] = target: T1, Bile acid receptor; assay: Agonist activity at FXR transfected in human HEK293T cells o-expressing pGL3/hBSEP/luc incubated for 24 hrs by Steady-Glo reagent based luciferase reporter gene assay; type: cell-based
[3] = system: Mus musculus; assay: Anti Steato-hepatitic activity in STZ/HFD induced C57BL/6J mouse STAM model assessed as reduction in NAS at 25 mg/kg, po administered via oral gavage once daily for 3 weeks and measured on 9 week by H and E staining based assay; type: functional, organism-based
[4] = Solubility of compound in pH 6.5 FASSIF at 2 mg measured for 5 to 60 mins by UV spectroscopic method; type: physicochemical
[5] = Lipophilicity, logD of compound at pH 6.8; type: physicochemical; conditions: buffer
[6] = Oral bioavailability in Wistar rat at 10 mg/kg in presence of PEG 300/D5W(3:1); type: ADME, organism-based; conditions: in vivo
[7] = Volume of distribution at steady state in Wistar rat at 3 mg/kg, iv; type: ADME, organism-based; conditions: in vivo, read-out: Vdss
[8] = Oral bioavailability in Wistar rat at 10 mg/kg in presence of TRIS salt; type: ADME, organism-based; conditions: in vivo
[9] = Permeability of the compound by PAMPA; type: ADME
[10] = Oral bioavailability in Wistar rat at 100 mg/kg in presence of TRIS salt; type: ADME, organism-based; conditions: in vivo
[11] = Clearance in Wistar rat at 3 mg/kg, iv; type: ADME, organism-based; conditions: in vivo
[12] = Half life in Wistar rat at 3 mg/kg, iv; type: ADME, organism-based; conditions: in vivo
[13] = Oral bioavailability in Wistar rat at 10 mg/kg in presence of 0.5% CMC/0.5% Tween 80; type: ADME, organism-based; conditions: in vivo

For `CC(=O)NCCNC(=O)c1nn(C)c2c1COc1ccccc1-2`, the pEC50 [1] was less than 5.00.
With `CC(=O)NCCN(C)C(=O)c1nn(C)c2c1COc1ccccc1-2` the pEC50 [1] was less than 5.00.
`CC(=O)NCCN(C(=O)c1nn(C)c2c1COc1ccc(Cl)cc1-2)C(C)c1ccccc1` (racemic) showed a pEC50 [1] of less than 5.00 and a pEC50 [2] of less than 5.00.
In the case of `CC[C@H]1[C@@H](O)[C@@H]2[C@H](CC[C@]3(C)[C@@H]([C@H](C)CCC(=O)O)CC[C@@H]23)[C@@]2(C)CC[C@@H](O)C[C@@H]12`, the Activity [3] was “inactive”.
`CC(=O)NCCN(Cc1ccccc1F)C(=O)c1nn(C)c2c1COc1ccc(Br)cc1-2` gave a solubility [4] of less than 2 µM.
With `CC(=O)NCCN(Cc1ccccc1)C(=O)c1nn(C)c2c1COc1ccc(Br)cc1-2` the solubility [4] was 73 µM (≈ 35.3 µg/mL).
Work on `CC(=O)NCCN(Cc1ccc(F)cc1)C(=O)c1nn(C)c2c1COc1ccc(Br)cc1-2` yielded a solubility [4] of 41 µM (≈ 20.6 µg/mL).
Molecule `CC(=O)NCCN(Cc1ccccn1)C(=O)c1nn(C)c2c1COc1ccc(Br)cc1-2` has a solubility [4] of less than 2 µM.
In the case of `CC(=O)NCCN(Cc1ccccc1)C(=O)c1c2c(nn1C)-c1cc(Br)ccc1OC2`, the pEC50 [1] was 5.22 and the pEC50 [2] was less than 4.70.
Work on `CC(=O)NCCN(Cc1cccc(F)c1)C(=O)c1nn(C)c2c1COc1ccc(Br)cc1-2` yielded a solubility [4] of 80 µM (≈ 40.1 µg/mL).
`CC(=O)NCCN(Cc1ccccc1)C(=O)c1nn(C)c2c1COc1ccc(I)cc1-2` showed a solubility [4] of 3 µM (≈ 1.59 µg/mL).
With `CC(=O)NCCN(Cc1ccccc1)C(=O)c1nn(C)c2c1COc1ccccc1-2` the solubility [4] was greater than 175 µM.
Molecule `CC(=O)NCCN(Cc1ccccc1)C(=O)c1nn(C(C)C)c2c1COc1ccc(Br)cc1-2` has a pEC50 [1] of 5.22 and a pEC50 [2] of 5.57.
Work on `O=C(O)c1cc(F)c2nc(N3[C@@H]4CC[C@H]3C[C@@H](OCc3c(-c5ccccc5OC(F)(F)F)noc3C3CC3)C4)sc2c1` [TROPIFEXOR] yielded a solubility [4] of 110 µM (≈ 66.4 µg/mL) and a logD [5] of 3.2.
For `Cn1nc(C(=O)N(CCNc2cc(C(=O)O)ccc2F)Cc2cccc(F)c2)c2c1-c1cc(F)ccc1OC2`, the bioavailability [6] was 22%, the Vd [7] was 1.43 L/kg and the bioavailability [8] was 15%. The permeability [9] was 96%, the bioavailability [10] was 12% and the solubility [4] was greater than 175 µM. For the same molecule, the clearance [11] was 19.9 mL/min/kg, the half-life [12] was 1.97 h and the bioavailability [13] was 17%.
Molecule `CC(=O)NCCN(Cc1ccccc1)C(=O)c1nn(C)c2c1COc1ccc(C3CC3)cc1-2` has a solubility [4] of 9 µM (≈ 4 µg/mL).
`CC(=O)NCCN(Cc1ccccc1)C(=O)c1n[nH]c2c1COc1ccc(Br)cc1-2` showed a pEC50 [1] of less than 5.00 and a pEC50 [2] of 4.96.
For `Cn1nc(C(=O)N(CC(=O)Nc2cc(C(=O)O)ccc2F)Cc2cccc(F)c2)c2c1-c1cc(F)ccc1OC2`, the bioavailability [6] was 36%, the Vd [7] was 1.6 L/kg and the bioavailability [8] was 56%. The permeability [9] was 86%, the bioavailability [10] was 28% and the solubility [4] was 46 µM (≈ 25.3 µg/mL). For the same molecule, the clearance [11] was 9.6 mL/min/kg, the half-life [12] was 3.6 h and the bioavailability [13] was 5%.
For `CC(=O)NCCN(Cc1ccccc1)C(=O)c1nn(C)c2c1COc1ccc(Cl)cc1-2`, the solubility [4] was greater than 175 µM.
